# Paper PMC6792352, “Limited Chemical Structural Diversity Found to Modulate Thyroid Hormone Receptor in the Tox21 Chemical Library” (Environmental Health Perspectives, 2019)
# Counter-ions that a name gives are not always drawn.
# Assay: in vitro
# Conditions: rat, gh3-tre-luc cells, AC50 (uM) modified / 1000
row,Compound,CC50 at 24 h [µM]
1,CC[C@H]1OC(=O)[C@H](C)C(=O)[C@H](C)[C@@H](O[C@@H]2O[C@H](C)C[C@H](N(C)C)[C@H]2O)[C@](C)(OC)C[C@@H](C)C(=O)[C@H](C)[C@H]2N(CCCCn3cnc(-c4cccnc4)c3)C(=O)O[C@]12C [Telithromycin],> 50
2,CN(C)CCCOc1nn(Cc2ccccc2)c2ccccc12 [Benzydamine hydrochloride],6.35
3,Cc1cn[nH]c1 [4-Methylpyrazole hydrochloride],> 50
4,CC(C)(C)NC[C@H](O)COc1cccc2c1CCCC2=O [Levobunolol hydrochloride],> 20
5,CO/N=C(\C(=O)N[C@@H]1C(=O)N2C(C(=O)OCOC(=O)C(C)(C)C)=C(/C=C\c3scnc3C)CS[C@H]12)c1csc(N)n1 [Cefditorin pivoxil],> 50
6,"C[Si](NC1CCCCC1)(NC1CCCCC1)NC1CCCCC1 [N,N',N''-Tricyclohexyl-1-methylsilanetriamine]",> 90
7,CNC1(c2ccccc2Cl)CCCCC1=O (stereo not shown) [Ketamine],> 50
8,CCN1CC(CCN2CCOCC2)C(c2ccccc2)(c2ccccc2)C1=O (stereo not shown) [Doxapram hydrochloride],> 50
9,COc1ccc(C(=O)/N=c2\[nH]c3ccccc3c(NCc3ccccc3)c2C#N)cc1 [SSR161421],> 90
10,"Cc1ccc(N)cc1C [3,4-Dimethylaniline]",> 90
11,CCOc1cccc(N)c1 [3-Ethoxyaniline],> 90
12,CCCCNc1ccc(C(=O)OCCN(C)C)cc1 [Tetracaine hydrochloride],> 20
13,"Oc1ccc(Cl)cc1Cl [2,4-Dichlorophenol]",> 90
14,CCCCCCCCCCCCCCCC(=O)OC/C=C(C)/C=C/C=C(C)/C=C/C1=C(C)CCCC1(C)C [Retinol palmitate],> 50
15,CC1(C)CO[C@@H](CC(=O)O)CN1 [SCH 50911],> 50
16,O=Cc1ccccc1[N+](=O)[O-] [2-Nitrobenzaldehyde],> 90
17,CC(=O)Nc1ccc(NC(=S)NC(=O)c2ccc(C(C)(C)C)cc2)cc1 [Tenovin-1],7.56
18,C[N+](C)(C)CC[N+]1(C)Cc2c(Cl)c(Cl)c(Cl)c(Cl)c2C1 [Chlorisondamine chloride],> 50
19,COc1cc(C(=O)N2CCOCC2)cc(OC)c1OC [Trimetozine],> 50
20,CSc1c(Cl)c(Cl)c(Cl)c(Cl)c1Cl [Pentachlorothioanisole],81.6
21,C[C@]12CC[C@@H]3c4ccc(O)cc4CC[C@H]3[C@@H]1CCC2=O [Estrone],> 50

row,Compound,CC50 at 24 h [µM]
1,OC1CCCC1 [Cyclopentanol],> 90
2,CC(=O)CC(c1ccc([N+](=O)[O-])cc1)c1c(O)c2ccccc2oc1=O (stereo not shown) [Acenocoumarol],> 20
3,"C[C@H]1C[C@@H](O)CC(C)(C)C1 (stereo in doubt) [(1R,5R)-3,3,5-trimethylcyclohexanol]",> 90
4,O=C(O[C@H]1CN2CCC1CC2)N1CCc2ccccc2[C@@H]1c1ccccc1 [Solifenacin hydrochloride],19.6
5,Cc1cc2cc3c(C)cc(=O)oc3c(C)c2o1 [Trioxsalen],> 20
6,CC(=O)OCC(=O)[C@@]1(O)CC[C@H]2[C@@H]3C[C@H](C)C4=CC(=O)C=C[C@]4(C)[C@H]3[C@@H](O)C[C@@]21C [Methylprednisolone acetate],> 50
7,Cc1cccc(Oc2ccccc2)c1 [1-Methyl-3-phenoxybenzene],> 90
8,COCC(C)OCC(C)O (stereo not shown) [Dipropylene glycol monomethyl ether],> 90
9,NC(=O)CI [Iodoacetamide],> 90
10,C[C@@H]1C/C=C/C=C/C=C/C=C/[C@H](O[C@@H]2O[C@H](C)[C@@H](O)[C@H](N)[C@@H]2O)C[C@@H]2O[C@](O)(C[C@@H](O)C[C@H]3O[C@@H]3/C=C/C(=O)O1)C[C@H](O)[C@H]2C(=O)O [Natamycin],> 50
11,Cc1nc(NS(=O)(=O)c2ccc(N)cc2)nc(C)c1Br [Sulfabromomethazine],> 50
12,O=C1OC(c2cc(I)c(O)c(I)c2)(c2cc(I)c(O)c(I)c2)c2ccccc21 [Iodophthalein],36.2
13,CCOc1ccc2nc3cc(N)ccc3c(N)c2c1 [Ethacridine lactate hydrate],> 50
14,Cc1cc(O)c2ccccc2c1O [Menadiol],37.2
15,CC(CCc1ccc2c(c1)OCO2)NN (stereo not shown) [Safrazine hydrochloride],> 50
16,C=CC(=O)OCCC#N [2-Cyanoethyl prop-2-enoate],> 90
17,O=P(O)(O)CP(=O)(O)O [Medronic acid],> 50
18,CCCCCC(C)=O [2-Heptanone],> 90
19,CCOc1ccc(Cc2nccc3cc(OCC)c(OCC)cc23)cc1OCC [Ethaverine hydrochloride],> 20
20,NC(=O)C1c2ccccc2CCc2ccccc21 [Cyheptamide],> 50
21,CC(C)Cc1ccc([C@H](C)C(=O)O)cc1 [Dexibuprofen],> 50

row,Compound,CC50 at 24 h [µM]
1,CC(=O)Nc1ccc(CC(=O)O)cc1 [4-Acetylaminophenylacetic acid],> 90
2,COc1cc(C)c(/C=C/C(C)=C/C=C/C(C)=C/C(=O)O)c(C)c1C [Acitretin],> 50
3,COc1ccc(-c2cc(C(F)F)nn2-c2ccc(S(N)(=O)=O)cc2)cc1F [Deracoxib],> 50
4,NC(=S)N/N=C/c1cccnc1 [Nicothiazone],> 50
5,CCCCCCC#CC(=O)OC [Methyl 2-nonynoate],> 90
6,Oc1cccc(Nc2ccccc2)c1 [3-Hydroxy-N-phenylaniline],> 100
7,Brc1c2ccccc2cc2ccccc12 [9-Bromoanthracene],> 90
8,Cc1ccc(-c2ccccc2)cc1 [4-Phenyltoluene],> 90
9,CC1=C(C(=O)O)N2C(=O)[C@@H](NC(=O)[C@H](N)c3ccc(O)cc3)[C@H]2SC1 [Cefadroxil],> 20
10,CCNC(=O)NCCCOc1cccc(CN2CCCCC2)c1 [Dalcotidine],> 50
11,Cc1onc(-c2c(Cl)cccc2Cl)c1C(=O)N[C@@H]1C(=O)N2[C@@H]1SC(C)(C)[C@@H]2C(=O)O [Dicloxacillin sodium salt monohydrate],> 50
12,"OCCCCCO [1,5-Pentanediol]",> 100
13,CCCCCOc1ccc(C2SC(=O)NC2=O)cc1OCC (stereo not shown) [Risarestat],> 50
14,Cc1noc(NS(=O)(=O)c2ccc(N)cc2)c1C [Sulfisoxazole],> 50
15,CN(C)CCN(Cc1ccccc1)c1ccccn1 [Tripelennamine citrate],> 50
16,O=c1[nH]c(=O)n([C@H]2C[C@H](O)[C@@H](CO)O2)cc1Br [5-Bromo-2'-deoxyuridine],> 90
17,NCCO/C=C/[C@H](N)C(=O)O [Aviglycine hydrochloride],> 50
18,Cc1nc2ccccn2c(=O)c1CCN1CCC(C(=O)c2ccc(F)cc2)CC1 [Pirenperone],> 50
19,CC1(C)C(/C=C/C=C/C=C/C=C2\N(CCCCS(=O)(=O)O)c3ccc4ccccc4c3C2(C)C)=[N+](CCCCS(=O)(=O)[O-])c2ccc3ccccc3c21 [Indocyanine green],19.5
20,C1CNCCN1 [Piperazine],> 50
21,CC1=CC[C@H]2C[C@@H]1C2(C)C [(-)-alpha-Pinene],> 90

# Same assay, conditions: rat, gh3-tre-luc cells, AC50 (uM) modified / 1000, Tox21_110001=Tox21_111183; viability, 1 nM T3 present, 24 h
row,Compound,CC50 at 24 h [µM]
1,CN1C[C@H](C(=O)N[C@]2(C)O[C@@]3(O)[C@@H]4CCCN4C(=O)[C@H](Cc4ccccc4)N3C2=O)C=C2c3cccc4[nH]cc(c34)C[C@H]21 [Ergotamine D-tartrate],> 50

# Same assay, conditions: rat, gh3-tre-luc cells, AC50 (uM) modified / 1000, Tox21_110001=Tox21_200156; viability, 1 nM T3 present, 24 h
row,Compound,CC50 at 24 h [µM]
1,"Brc1ccc(Oc2cc(Br)c(Br)cc2Br)c(Br)c1 [2,2',4,4',5-Pentabromodiphenyl ether]",> 90

# Same assay, conditions: rat, gh3-tre-luc cells, AC50 (uM) modified / 1000, Tox21_110001=Tox21_200363; viability, 1 nM T3 present, 24 h
row,Compound,CC50 at 24 h [µM]
1,C=CC(C)=O [Methyl vinyl ketone],> 90

# Same assay, conditions: rat, gh3-tre-luc cells, AC50 (uM) modified / 1000, Tox21_110001=Tox21_200657; viability, 1 nM T3 present, 24 h
row,Compound,CC50 at 24 h [µM]
1,O=C(O)CBr [Bromoacetic acid],> 90

# Same assay, conditions: rat, gh3-tre-luc cells, AC50 (uM) modified / 1000, Tox21_110001=Tox21_201394; viability, 1 nM T3 present, 24 h
row,Compound,CC50 at 24 h [µM]
1,CC(C)Nc1nc(Cl)nc(NC(C)C)n1 [Propazine],> 90

# Same assay, conditions: rat, gh3-tre-luc cells, AC50 (uM) modified / 1000, Tox21_110001=Tox21_201705; viability, 1 nM T3 present, 24 h
row,Compound,CC50 at 24 h [µM]
1,CN1C[C@H](C(=O)N[C@]2(C)O[C@@]3(O)[C@@H]4CCCN4C(=O)[C@H](Cc4ccccc4)N3C2=O)C=C2c3cccc4[nH]cc(c34)C[C@H]21 [Ergotamine D-tartrate],> 90

# Same assay, conditions: rat, gh3-tre-luc cells, AC50 (uM) modified / 1000, Tox21_110001=Tox21_202415; viability, 1 nM T3 present, 24 h
row,Compound,CC50 at 24 h [µM]
1,Oc1ccccc1-c1ccccc1 [2-Phenylphenol],> 90

# Same assay, conditions: rat, gh3-tre-luc cells, AC50 (uM) modified / 1000, Tox21_110001=Tox21_202936; viability, 1 nM T3 present, 24 h
row,Compound,CC50 at 24 h [µM]
1,CCOC(=O)C(Cl)C(C)=O (stereo not shown) [Ethyl 2-chloroacetoacetate],> 90

# Same assay, conditions: rat, gh3-tre-luc cells, AC50 (uM) modified / 1000, Tox21_110001=Tox21_300394; viability, 1 nM T3 present, 24 h
row,Compound,CC50 at 24 h [µM]
1,O=C(O)C(F)(F)C(F)(F)C(F)(F)C(F)(F)C(F)(F)F [Perfluorohexanoic acid],> 90

# Same assay, conditions: rat, gh3-tre-luc cells, AC50 (uM) modified / 1000, Tox21_110001=Tox21_300698; viability, 1 nM T3 present, 24 h
row,Compound,CC50 at 24 h [µM]
1,CCOC(=O)COc1cc(-c2nn(C)c(OC(F)F)c2Cl)c(F)cc1Cl [Pyraflufen-ethyl],> 90

# Same assay, conditions: rat, gh3-tre-luc cells, AC50 (uM) modified / 1000, Tox21_110001=Tox21_300968; viability, 1 nM T3 present, 24 h
row,Compound,CC50 at 24 h [µM]
1,CNC(=O)CSP(=O)(OC)OC [Omethoate],> 90

# Same assay, conditions: rat, gh3-tre-luc cells, AC50 (uM) modified / 1000, Tox21_110001=Tox21_301761; viability, 1 nM T3 present, 24 h
row,Compound,CC50 at 24 h [µM]
1,CC(C)CP(=S)(S)CC(C)C [Sodium bis(2-methylpropyl)phosphinodithioate],> 90

# Same assay, conditions: rat, gh3-tre-luc cells, AC50 (uM) modified / 1000, Tox21_110001=Tox21_303182; viability, 1 nM T3 present, 24 h
row,Compound,CC50 at 24 h [µM]
1,CN1C[C@H](C(=O)N[C@]2(C)O[C@@]3(O)[C@@H]4CCCN4C(=O)[C@H](Cc4ccccc4)N3C2=O)C=C2c3cccc4[nH]cc(c34)C[C@H]21 [Ergotamine D-tartrate],> 40
